From patent US20140314788A1, “MODULATION OF HISTONE DEACETYLASES FOR THE TREATMENT OF METABOLIC DISEASE, METHODS AND COMPOSITIONS RELATED THERETO” (Salk Institute for Biological Studies, priority 2010, published 2014)
Entries after “also recorded” stand apart in the source; their conditions may differ.

Legend:
HDAC4/5/7 [1] = assay: Immunoblot of HDAC phosphorylation in livers of metformin-treated mice; format: in vivo; settings: mouse liver, 250 mg/kg metformin intraperitoneally for 1 h
Protocol: (D) Immunoblot of lysates from murine livers from LKB1+/+ or LKB1lox/lox mice deleted for hepatic LKB1 and treated with either 250 mg/kg metformin, or saline alone for 1 h.
To induce Cre-mediated deletion in Albumin-creERT2 mice, mice were intraperitoneally injected with 1 mg/mouse of Tamoxifen (SIGMA) for 5 consecutive days. Ad-Cre mediated deletion in LBK1lox/lox mice was done by tail vein injection of 1×10^9 PFUs/mouse in 8 week old males (FIG. 1D). […] For metformin experiments, mice injected intraperitoneally with 250 mg/kg Metformin in 0.9% saline for 1 h.

G6PAse and PEPCK mRNA = assay: qPCR of G6PAse and PEPCK mRNA in primary hepatocytes pre-treated with MC1568; format: cell-based, mouse; settings: 5 uM MC1568 for 14 hours, then 10 uM Forskolin or 100 nM Glucagon for 4 hrs; normalized to cyclophilin
Protocol: (§1) Blood glucose was measured on mice fasted for 22 hours (4 hrs following the final treatment).
(§2) Primary hepatocytes were derived from C57BL/6J mice and maintained in serum free Media 199. Cells were transduced 24 hrs after harvesting. Knock-down and over-expression studies in hepatocytes were done by infecting cells at 5 PFUs/cell. All adenoviral shRNA knockdowns were carried out for 72 hrs. For subcellular fractionation, cells were treated as indicated, washed 3 times with PBS and lysed utilizing NE-PER Cell Fractionation Kit (Pierce). Primary hepatocytes were treated with 10 uM Forksolin (Sigma) and 100 nM Glucagon (Novo Nordisk), 100 nM insulin (Lilly) at indicated times.
mRNA from primary hepatocytes was isolated using RNAeasy (Qiagen) kit and reverse transcribed using SuperScript II Reverse Transcriptase. Three samples/mice were used per condition and qPCR was done in technical triplicate for each sample. qPCR reaction was carried out using Syber GreenER (Invitrogen). All qPCR results are representative of 3 separate experiments.

db/db mice = assay: Blood glucose in db/db mice treated with MC1568; format: in vivo, mouse; settings: 50 mg/kg intraperitoneally once a day for 4 days, fasted for 22 hours (4 hrs after final treatment)
Protocol: as §1

HDAC4/5/7 [2] = assay: Immunoblot of HDAC phosphorylation in liver lysates of glucagon-injected mice; format: in vivo, mouse; settings: mice starved 6 h, glucagon for 45 minutes
Protocol: (A) Mice were starved for 6 h and then treated with saline, glucagon (Gluca) for 45 minutes, or refed for 3 h. Liver lysates were immunoblotted with indicated antibodies.

HDAC4/5/7 [3] = assay: Immunoblot of HDAC phosphorylation in primary mouse hepatocytes treated with glucagon or forskolin; format: cell-based; settings: 100 nM glucagon or 10 uM forskolin
GFP-HDAC5 = GFP-HDAC5 nuclear translocation in primary mouse hepatocytes (confocal microscopy); format: cell-based; settings: 100 nM glucagon
[4] = system: endogenous Class IIa HDACs; assay: Subcellular fractionation of primary hepatocytes; format: cell-based, mouse; settings: 100 nM Glucagon or 10 uM Forskolin for 1 h
FOXO1 = FOXO1 acetylation immunoblot in HEK293T cells treated with TSA; format: cell-based; settings: HEK293T cells with Myc-Foxo1 WT, 1 uM TSA for 2 h
Protocol: (C) HEK293T cells were transfected with Myc-Foxo1 WT construct and cells were treated with 1 uM TSA and/or 10 mM NAM for 2 h. Cell lysates were immunoblotted with indicated antibodies.
(§3) HEK293T, Huh7, HepG2, C2C12, and U2OS cells were obtained from ATCC. RNAi SMARTpool human LKB1 (Dharmacon) or RNAi negative control (Invitrogen) used at 20 nM final concentration and transfected using RNAiMAX transfection reagent (Invitrogen). Knockdowns were carried out for 72 hrs. Cells were treated with 1 uM TSA or 10 mM NAM (Sigma), Cells were treated with 2 mM AICAR (Toronto Research Chemicals) or 2 mM Phenformin (Sigma).

HDACs4/5 = assay: Immunoblot of HDAC phosphorylation in HepG2 or Huh7 cells treated with phenformin; format: cell-based, human; settings: 2 mM Phenformin for 1 hr
Protocol: (C) Lysates of HepG2 or Huh7 cells transfected with indicated siRNA pools and treated with either 2 mM Phenformin or vehicle for 1 hr and subjected to immunoblotting.
as §3

HDAC4/5/7 [5] = assay: Immunoblot of HDAC phosphorylation in primary hepatocytes treated with A769662; format: cell-based, mouse; settings: 1 hr, particularly on the Ser498 sites
Protocol: (F) Lysates from primary hepatocytes treated with either AMPK agonist A769662 or Vehicle (DMSO) for 1 hr and immunoblotted with indicated antibodies.
as §2

CN(C)C(=N)N=C(N)N [metformin]
Phospho-Ser498 in HDAC4/5/7 (HDAC4/5/7 [1]): increase in Phospho-Ser498

Cn1c(/C=C/C(=O)NO)ccc1/C=C/C(=O)c1cccc(F)c1 [MC1568]
expression of G6PAse (mRNA, qPCR) (G6PAse and PEPCK mRNA): suppresses the expression; also recorded: suppression
expression of PEPCK (mRNA, qPCR) (G6PAse and PEPCK mRNA): suppresses the expression; also recorded: suppression
blood glucose (db/db mice): lowers blood glucose; also recorded: suppression

glucagon
HDAC4/5/7 phosphorylation in liver (HDAC4/5/7 [2]): reduced HDAC4/5/7 phosphorylation
endogenous HDAC4/5/7 phosphorylation (HDAC4/5/7 [3]): rapid loss of endogenous HDAC4/5/7 phosphorylation
time to full nuclear translocation of GFP-tagged HDAC5 (GFP-HDAC5): ≤ 30 min
localization of endogenous Class IIa HDACs [4]: translocate fully into the nucleus

CC(/C=C/C(=O)NO)=C\[C@@H](C)C(=O)c1ccc(N(C)C)cc1 [trichostatin A]
FOXO1 acetylation (FOXO1): increased FOXO1 acetylation

[H]/N=C(/N)N/C(=N/[H])NCCc1ccccc1 [phenformin]
phosphorylation on Ser498 of HDACs4/5 (HDACs4/5): LKB1-dependent increase in phosphorylation

N#Cc1c(O)c2c(-c3ccc(-c4ccccc4O)cc3)csc2[nH]c1=O [A769662]
HDAC4/5/7 phosphorylation (HDAC4/5/7 [5]): increased HDAC4/5/7 phosphorylation
